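Where inhibition never reached the appropriate level, the endpoint shown equals the highest concentration tested. Otherwise, values were interpolated linearly from a five-concentration, 48-hour dose response in 96-well plates. The concentration for full growth arrest is given as TGI.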
How the values were obtained:
Assay in all cases: NCI anticancer screen, dose series, 48 h
HOP-62 NSCLC = test system: HOP-62 NSCLC
SK-MEL-5 melanoma = test system: SK-MEL-5 melanoma
OVCAR-5 ovarian = test system: OVCAR-5 ovarian
LOX IMVI melanoma = test system: LOX IMVI melanoma
M14 melanoma = test system: M14 melanoma
MCF7 breast = test system: MCF7 breast
HOP-92 NSCLC = test system: HOP-92 NSCLC
MOLT-4 leukemia = test system: MOLT-4 leukemia
UO-31 renal = test system: UO-31 renal
BT-549 breast = test system: BT-549 breast

SMILES	TGI (HOP-62 NSCLC) [µM]	TGI (SK-MEL-5 melanoma) [µM]	TGI (OVCAR-5 ovarian) [µM]	TGI (LOX IMVI melanoma) [µM]	TGI (M14 melanoma) [µM]	TGI (MCF7 breast) [µM]	TGI (HOP-92 NSCLC) [µM]	TGI (MOLT-4 leukemia) [µM]	TGI (UO-31 renal) [µM]	TGI (BT-549 breast) [µM]
Cc1cc2c(O)c(c1)CN(CC(=O)O)Cc1cc(C)cc(c1O)CN(CC(=O)O)Cc1cc(C)cc(c1O)CN(CC(=O)O)C2	> 100	> 100	> 100	> 100	> 100	> 100	> 100	> 100	> 100	> 100
COc1ccc(Nc2nc(N)c(C(=O)c3c[nH]c4ccccc34)s2)cc1	> 71.4	14.4	> 80.5	> 100	16.4	18.8	29.3	20.9	> 100	> 40.5
O=C1C=CC(=O)c2c(O)c(N3CCC[C@H]3CO)c(Cl)c(O)c21	> 10	3.11	> 10	4.34	3.61	3.66	3.13	1.95	> 5.84	> 10
O=C1NC2CCCCC2N=C1CC(=O)c1ccc(Br)cc1 (stereo not given)	> 100	> 100	> 100	> 100	> 100	> 100	65.8	> 100	> 100	94.2
CC(C)c1cccc(C(C)C)c1NC(=O)/C(CC(=O)CC(c1ccccc1)c1c(O)c2ccccc2oc1=O)=N/O (stereo not given)	> 100	> 100	> 100	> 100	> 100	> 100	> 100	> 100	> 100	> 100
CN(C)c1ccc(/C=C(\NC(=O)c2ccccc2)c2nn(C)c(=O)o2)cc1	38.1	93.5	> 100	> 100	> 100	> 100	> 100	> 100	> 100	> 100
COc1cc(C(c2c(O)c3ccccc3oc2=O)c2c(O)c3ccccc3oc2=O)cc(Br)c1O	45.8	29.8	39.3	33.8	31.4	31.3	26.2	64.8	31	32.5
CC1=NN(c2nc(N)nc(-c3sccc3N)n2)C(C)(C)C1	> 100	> 100	> 100	> 100	> 100	> 100	> 100	> 100	> 100	> 100
CN(C)CCCNC(=O)c1cc(NC(=O)c2cc(NC(=O)CCCn3c4ccccc4c4ccccc43)cn2C)cn1C	30.9	19.6	> 57.7	> 50.9	12.3	39	40.1	> 23.1	> 58.2	46.7
Cc1cc(C)c2c(=O)cc(-c3cccc(F)c3)[nH]c2n1	> 79.9	6.38	> 100	22	> 100	2.16	0.489	> 53.5	> 100	> 22
CCCCSc1nsc(N(C(=O)c2ccccc2)C(=O)c2ccccc2)n1	> 100	36.6	89.4	> 100	> 100	> 100	75	59.5	39.5	92.1
O=C(OCCN=c1c2ccccc2ccc2ccccc12)c1ccccc1	> 100	> 100	> 100	> 100	> 100	> 100	> 100	> 100	> 100	> 100
O=S(=O)(c1cc(Cl)ccc1Cl)n1ccnc1	> 100	53.9	> 100	> 100	> 100	> 100	> 100	> 100	> 100	> 100
O=P(O)(O)c1ccccc1Oc1ccccc1	> 100	> 100	> 100	> 100	> 100	> 100	> 100	> 100	> 100	> 100
Cc1cc(S(=O)(=O)Nc2n[nH]c(-c3ccccn3)n2)c(S)cc1Cl	59	24.3	45.4	> 100	44.5	> 100	64.1	> 100	10.5	79.6
CC1CCC2(NC1)OC1CC3C4CC=C5CC(OC6OC(CO)C(OC7OC(C)C(O)C(O)C7O)C(O)C6OC6OC(C)C(O)C(O)C6O)CCC5(C)C4CCC3(C)C1C2C (stereo not given)	> 100	33.9	16.1	19.9	6.39	4.88	21.1	26.7	21.1	30.3
O=[N+]([O-])c1ccc(NC(=S)N=Nc2c(O)[nH]c3ccc([N+](=O)[O-])cc23)cc1	50.4	30.7	68	49.1	41.9	84.1	35.2	> 100	45.1	33.7
CCOc1ccc(Nc2nc(N)nc(N)c2N)cc1	79	> 100	> 100	> 100	> 100	38.1	> 100	> 100	74.3	76.6
